Reference: ChEMBL document CHEMBL4665764, “Synthesis and Biological Evaluation of Celastrol Derivatives as Potential Immunosuppressive Agents” (J Nat Prod, 2020)
Active and inactive are the calls of the source. The rule behind the calls is not given here.

Columns and labels:
[1] = Induction of apoptosis in Con A-induced BALB/c mouse T cell assessed as necrotic cells at 0.1 uM after 48 hrs by Annexin V-FITC/propidium iodide staining based FACS assay (reference value: 2.9%); type: functional, T cell line
T cell line [2] = test: Induction of apoptosis in BALB/c mouse T cell assessed as assessed as increase in caspase 3 >=1 uM; type: functional, tissue-based; conditions: dose microM >=1
[3] = Anti-inflammatory activity in BALB/c mouse T cell assessed as assessed as IL-4 level at 1 uM after 48 hrs by ELISA (reference value: 167.8 +/- 9.4 pg/ml); type: functional, T cell line
[4] = Selectivity index, ratio of CC50 for cytotoxicity against BALB/c mouse T cell to IC50 for antiproliferative activity against Con A-induced BALB/c mouse T cell; parameters: species or system T cell line
[5] = Induction of apoptosis in Con A-induced BALB/c mouse T cell assessed as necrotic cells at 1 uM after 48 hrs by Annexin V-FITC/propidium iodide staining based FACS assay (reference value: 2.9%); type: functional, T cell line
[6] = Induction of apoptosis in Con A-induced BALB/c mouse T cell assessed as early apoptotic cells at 0.01 uM after 48 hrs by Annexin V-FITC/propidium iodide staining based FACS assay (reference value: 26.5%); type: functional, T cell line
[7] = Induction of apoptosis in Con A-induced BALB/c mouse T cell assessed as viable cells at 0.01 uM after 48 hrs by Annexin V-FITC/propidium iodide staining based FACS assay (reference value: 63.3%); type: functional, T cell line
[8] = Anti-inflammatory activity in BALB/c mouse T cell assessed as assessed as IL-2 level at 0.01 uM after 48 hrs by ELISA (reference value: 152.9 +/- 8.7 pg/ml); type: functional, T cell line
[9] = Induction of apoptosis in Con A-induced BALB/c mouse T cell assessed as early apoptotic cells at 1 uM after 48 hrs by Annexin V-FITC/propidium iodide staining based FACS assay (reference value: 26.5%); type: functional, T cell line
[10] = Anti-inflammatory activity in BALB/c mouse T cell assessed as assessed as TNF-alpha level at 0.01 uM after 48 hrs by ELISA (reference value: 375.8 +/- 19.6 pg/ml); type: functional, T cell line
[11] = Induction of apoptosis in Con A-induced BALB/c mouse T cell assessed as early apoptotic cells at 0.1 uM after 48 hrs by Annexin V-FITC/propidium iodide staining based FACS assay (reference value: 26.5%); type: functional, T cell line
[12] = Cytotoxicity against BALB/c mouse T cell assessed as reduction in cell viability after 48 hrs by CCK8 assay; type: tissue-based, T cell line; conditions: BALB/c mouse T cells
[13] = Induction of apoptosis in Con A-induced BALB/c mouse T cell assessed as viable cells at 0.1 uM after 48 hrs by Annexin V-FITC/propidium iodide staining based FACS assay (reference value: 63.3%); type: functional, T cell line
[14] = Antiproliferative activity against Con A-induced BALB/c mouse T cell after 48 hrs by CCK8 assay; type: functional, tissue-based, T cell line
[15] = Induction of apoptosis in Con A-induced BALB/c mouse T cell assessed as late apoptotic cells at 1 uM after 48 hrs by Annexin V-FITC/propidium iodide staining based FACS assay (reference value: 7.3%); type: functional, T cell line
[16] = Anti-inflammatory activity in BALB/c mouse T cell assessed as assessed as IL-2 level at 0.1 uM after 48 hrs by ELISA (reference value: 152.9 +/- 8.7 pg/ml); type: functional, T cell line
[17] = Induction of apoptosis in Con A-induced BALB/c mouse T cell assessed as necrotic cells at 0.01 uM after 48 hrs by Annexin V-FITC/propidium iodide staining based FACS assay (reference value: 2.9%); type: functional, T cell line
[18] = Induction of apoptosis in Con A-induced BALB/c mouse T cell assessed as viable cells at 1 uM after 48 hrs by Annexin V-FITC/propidium iodide staining based FACS assay (reference value: 63.3%); type: functional, T cell line
T cell line [19] = test: Induction of apoptosis in BALB/c mouse T cell assessed as assessed as increase in caspase 9 >=1 uM; type: functional, tissue-based; conditions: dose microM >=1
[20] = Anti-inflammatory activity in BALB/c mouse T cell assessed as assessed as TNF-alpha level at 0.1 uM after 48 hrs by ELISA (reference value: 375.8 +/- 19.6 pg/ml); type: functional, T cell line
T cell line [21] = test: Induction of mitochondrial membrane disruption in BALB/c mouse T cell assessed as increase in cytochrome c release from mitochondria to cytosol at >=1 uM by Western blot analysis; type: functional; conditions: dose microM >=1
[22] = target: T1, Tyrosine-protein kinase ZAP-70 (Mus musculus) (UniProt P43404); test: Inhibition of ZAP70 phosphorylation in Con-A induced BALB/c mouse T cell by Western blot analysis; type: tissue-based; conditions: T cell line
T1 sequence (whole entry): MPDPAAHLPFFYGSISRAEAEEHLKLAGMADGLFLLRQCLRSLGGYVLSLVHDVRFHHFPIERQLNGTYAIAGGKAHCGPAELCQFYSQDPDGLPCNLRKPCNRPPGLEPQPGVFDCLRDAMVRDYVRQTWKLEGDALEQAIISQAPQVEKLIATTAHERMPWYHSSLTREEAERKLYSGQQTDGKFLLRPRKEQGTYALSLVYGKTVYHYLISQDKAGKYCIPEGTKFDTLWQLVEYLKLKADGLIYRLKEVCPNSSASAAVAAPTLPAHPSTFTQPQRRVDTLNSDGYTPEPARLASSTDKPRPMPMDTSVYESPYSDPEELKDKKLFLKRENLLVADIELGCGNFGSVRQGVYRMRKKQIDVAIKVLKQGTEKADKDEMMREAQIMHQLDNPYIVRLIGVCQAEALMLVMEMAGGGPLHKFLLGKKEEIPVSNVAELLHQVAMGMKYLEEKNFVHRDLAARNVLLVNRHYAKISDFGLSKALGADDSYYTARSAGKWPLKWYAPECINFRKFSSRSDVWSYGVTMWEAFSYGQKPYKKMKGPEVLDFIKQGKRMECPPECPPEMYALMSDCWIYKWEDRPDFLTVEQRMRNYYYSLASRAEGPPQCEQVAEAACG

[23] = target: Proto-oncogene tyrosine-protein kinase LCK (Mus musculus) (UniProt P06240); test: Inhibition of LCK phosphorylation in Con-A induced BALB/c mouse T cell by Western blot analysis; type: tissue-based; conditions: T cell line
Proto-oncogene tyrosine-protein kinase LCK (Mus musculus), sequence (P06240 2-509 limits assumed): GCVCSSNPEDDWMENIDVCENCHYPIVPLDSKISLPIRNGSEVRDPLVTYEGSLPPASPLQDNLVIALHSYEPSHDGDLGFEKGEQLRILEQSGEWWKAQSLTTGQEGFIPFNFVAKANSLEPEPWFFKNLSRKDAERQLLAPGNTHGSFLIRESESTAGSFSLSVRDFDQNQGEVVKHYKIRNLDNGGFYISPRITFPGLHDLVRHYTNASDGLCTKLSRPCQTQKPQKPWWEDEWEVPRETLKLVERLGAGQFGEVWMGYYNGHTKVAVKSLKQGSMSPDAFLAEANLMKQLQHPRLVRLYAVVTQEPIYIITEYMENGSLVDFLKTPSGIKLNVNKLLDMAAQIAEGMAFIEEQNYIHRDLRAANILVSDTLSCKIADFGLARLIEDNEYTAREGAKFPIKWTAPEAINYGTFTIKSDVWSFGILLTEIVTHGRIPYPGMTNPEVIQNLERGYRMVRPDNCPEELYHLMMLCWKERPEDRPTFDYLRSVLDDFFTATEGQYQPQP

[24] = Anti-inflammatory activity in BALB/c mouse T cell assessed as assessed as IL-4 level at 0.01 uM after 48 hrs by ELISA (reference value: 167.8 +/- 9.4 pg/ml); type: functional, T cell line
[25] = Induction of apoptosis in Con A-induced BALB/c mouse T cell assessed as late apoptotic cells at 0.01 uM after 48 hrs by Annexin V-FITC/propidium iodide staining based FACS assay (reference value: 7.3%); type: functional, T cell line
[26] = Induction of apoptosis in Con A-induced BALB/c mouse T cell assessed as late apoptotic cells at 0.1 uM after 48 hrs by Annexin V-FITC/propidium iodide staining based FACS assay (reference value: 7.3%); type: functional, T cell line
T cell line [27] = test: Induction of apoptosis in BALB/c mouse T cell assessed as increase in Bax at >=1 uM by Western blot analysis; type: functional; conditions: dose microM >=1
[28] = Anti-inflammatory activity in BALB/c mouse T cell assessed as assessed as IL-4 level at 0.1 uM after 48 hrs by ELISA (reference value: 167.8 +/- 9.4 pg/ml); type: functional, T cell line
[29] = Anti-inflammatory activity in BALB/c mouse T cell assessed as assessed as TNF-alpha level at 1 uM after 48 hrs by ELISA (reference value: 375.8 +/- 19.6 pg/ml); type: functional, T cell line
T cell line [30] = test: Induction of apoptosis in BALB/c mouse T cell assessed as increase in Bcl2 at >=1 uM by Western blot analysis; type: functional; conditions: dose microM >=1
[31] = Anti-inflammatory activity in BALB/c mouse T cell assessed as assessed as IL-2 level at 1 uM after 48 hrs by ELISA (reference value: 152.9 +/- 8.7 pg/ml); type: functional, T cell line

CNC(=O)[C@]1(C)CC[C@]2(C)CC[C@]3(C)C4=CC=C5C(=CC(=O)C(O)=C5C)[C@]4(C)CC[C@@]3(C)[C@@H]2C1
Activity [1]: 0.5% | Activity (T cell line [2]): Active | Activity [3]: 39.1 pg/mL | Ratio CC50/IC50 [4]: 47.7 | Activity [5]: 1% | Activity [6]: 27.9% | Activity [7]: 63.4% | Activity [8]: 128.7 pg/mL | Activity [9]: 56% | Activity [10]: 264.5 pg/mL | Activity [11]: 43.6% | CC50 at 48 h [12]: 1200 nM | Activity [13]: 46.3% | IC50 [14]: 25 nM | Activity [15]: 8.5% | Activity [16]: 79.1 pg/mL | Activity [17]: 1.7% | Activity [18]: 34.5% | Activity (T cell line [19]): Active | Activity [20]: 204.1 pg/mL | Activity (T cell line [21]): Active | inhibition [22]: Dose-dependent effect | inhibition [23]: Dose-dependent effect | Activity [24]: 135.2 pg/mL | Activity [25]: 7% | Activity [26]: 9.5% | Activity (T cell line [27]): Active | Activity [28]: 78.2 pg/mL | Activity [29]: 142.9 pg/mL | Activity (T cell line [30]): Active | Activity [31]: 51.1 pg/mL
